The record followed here is patent US20180010188A1, “METHOD FOR DETECTING NONSENSE-MEDIATED RNA DECAY” (The Regents of the University of California, priority 2016, published 2018).

Each structure is given as a SMILES string.

One assay relates to Perk transcripts. Put plainly: Perk transcript levels by RT-qPCR. The assay is classed as cell-based, mouse. Conditions: thapsigargin in control siRNA-pretreated cells. The method, then:
Two independent siRNAs reduced the endogenous Perk transcripts to around 20% (FIG. 4A).
Neuro-2a (N2a) cells were maintained in N2a complete media consisting of L-glutamine-free Dulbecco's modified Eagle's medium (DMEM), 10% FBS and 1× GlutaMAX at 37° C. Thapsigargin (VWR, cat. no. 89161-410), ionomycin (Fisher Scientific, cat. no. AG-CN2-0416-M001) and ouabain octahydrate (Fisher Scientific, cat. no. 80055-364) were dissolved in DMSO and stored at −80° C. For the application of these chemicals, 750,000 cells were plated on 35 mm BioLite TC plates and incubated with 2 ml of N2a complete media overnight before treatment with the drugs at the indicated concentrations. The cells were collected at 5 hours post-treatment unless otherwise specified. The PERK inhibitor GSK2606414 (Thermo Fisher, cat. no. 501016108) was dissolved in DMSO and stored at −20° C. N2a cells were incubated with GSK2606414 for 1 hour before thapsigargin treatment. For L-glutamine deprivation, 750,000 N2a cells were plated overnight and switched to L-glutamine-free DMEM with 10% FBS. […]
Trizol (Life Technologies, cat. no. 15596-018) was directly added to the cells or mouse brain tissues to extract total RNA following the Trizol Reagent standard protocol. […] RNA concentrations were measured using a Nanodrop 2000c (Thermo Fisher). […] Relative expression (fold changes) was calculated using the ΔΔCt method. […]

The subject of a further assay is core NMD factors. In words: Expression of core NMD factors after thapsigargin. The assay is classed as cell-based, mouse. Conditions: 5 hours after thapsigargin treatment (data not shown). The source says: Thapsigargin is a non-competitive inhibitor of the sarco/endoplasmic reticulum Ca^2+ ATPase (SERCA) (Wictome et al., 1992. Biochem J 283 (Pt 2): 525-529; Lytton et al., 1991. J Biol Chem 266: 17067-17071). Thapsigargin treatment increases intracellular Ca^2+ concentration, which stimulates various Ca^2+ dependent signaling pathways. In fact, Nickless et al. recently reported that intracellular calcium inhibited NMD after administration of thapsigargin (Nickless et al. 2014. Nat Med 20: 961-966). Thapsigargin also induces ER stress. […] The diverging mechanisms reported by these studies were both based on the traditional NMD reporter approach and gene-centric validation. We therefore investigated which of the proposed mechanisms our independent method would support.

In the case of `C/C=C(/C)C(=O)O[C@H]1C(C)=C2[C@H]([C@@H]1OC(=O)CCCCCCC)[C@@](C)(OC(C)=O)C[C@H](OC(=O)CCC)[C@@]1(O)[C@H]2OC(=O)[C@@]1(C)O` [thapsigargin], in the assay with Perk transcripts, the Perk transcript levels result was “increased”. Further, the “expression of core NMD factors” value in the assay on core NMD factors is on record as “no changes in their expression”.
